From US11021457B2, “Class of isoindolone-imide ring-1,3-dione-2-ene compounds, composition and use thereof” (WIGEN BIOMEDICINE TECHNOLOGY (SHANGHAI) CO., LTD., priority 2017, dated 2021)

How the values were obtained:
Type in all cases: cell-based
Conditions in all cases: compound concentration 50 μM, 72 hours
SU-DHL6 = assay: Inhibition of tumor cell proliferation, CellTiter-Glo, SU-DHL6
Protocol: (§1) For various cell lines, the corresponding complete medium was used, and culture was carried out in an incubator at 37° C. with 5% CO2. The cells were counted, and inoculated into a 96-well plate at 2000-10000 cells/100 μl per well according to the cell volume and growth rate. The suspended cells were treated immediately, and the adherent cells were treated after adherence. The CellTiter-Glo method was used to detect the changes in cell viability 72 hours after the administration, and the cell survival rate at different concentrations was calculated by a formula: Survival rate (%)=(RLU of treatment well−RLU of blank well)/(RLU of control well−RLU of blank well)×100.
(§2) Method for expressing the inhibitory activity of the compounds against the proliferation of tumor cells: Evaluation was made based on the cell survival rate at a compound concentration of 50 μM. 60≤survival rate (%)<90 is considered to have low inhibitory activity against the proliferation of tumor cells (+); 30<survival rate (%)≤60 is considered to have moderate inhibitory activity against the proliferation of tumor cells (++); and survival rate (%)≤30 is considered to have high inhibitory activity against the proliferation of tumor cells (+++).

RPMI-8226 = assay: Inhibition of tumor cell proliferation, CellTiter-Glo, RPMI-8226
Protocol: as §1, §2

K562 = assay: Inhibition of tumor cell proliferation, CellTiter-Glo, K562
Protocol: as §1, §2

A549 = assay: Inhibition of tumor cell proliferation, CellTiter-Glo, A549
Protocol: as §1, §2

MDA-MB-453 = assay: Inhibition of tumor cell proliferation, CellTiter-Glo, MDA-MB-453
Protocol: as §1, §2

BxPC-3 = assay: Inhibition of tumor cell proliferation, CellTiter-Glo, BxPC-3
Protocol: as §1, §2

Compound	Inhibitory activity against proliferation (cell survival rate) SU-DHL6 (SU-DHL6)	Inhibitory activity against proliferation (cell survival rate) RPMI-8226 (RPMI-8226)	Inhibitory activity against proliferation (cell survival rate) K562 (K562)	Inhibitory activity against proliferation (cell survival rate) A549 (A549)	Inhibitory activity against proliferation (cell survival rate) MDA-MB-453 (MDA-MB-453)	Inhibitory activity against proliferation (cell survival rate) BxPC-3 (BxPC-3)
COc1ccc(C2CC(=O)C(=CNc3cccc4c3CN(C3CCC(=O)NC3=O)C4=O)C(=O)C2)cc1 (stereo not drawn) [Compound 32]	+++ (survival rate (%)≤30)	+++ (survival rate (%)≤30)	+++ (survival rate (%)≤30)	+++ (survival rate (%)≤30)	++ (30<survival rate (%)≤60)	+ (60≤survival rate (%)<90)
COC(=O)c1ccc(C2CC(=O)C(=CNc3cccc4c3CN(C3CCC(=O)NC3=O)C4=O)C(=O)C2)cc1 (stereo not drawn) [Compound 33]	+++ (survival rate (%)≤30)	+++ (survival rate (%)≤30)	+++ (survival rate (%)≤30)	+++ (survival rate (%)≤30)	+++ (survival rate (%)≤30)	+ (60≤survival rate (%)<90)
O=C1CCC(N2Cc3c(NC=C4C(=O)CC(c5ccc(O)cc5)CC4=O)cccc3C2=O)C(=O)N1 (stereo not drawn) [Compound 34]	+++ (survival rate (%)≤30)	++ (30<survival rate (%)≤60)	++ (30<survival rate (%)≤60)	+ (60≤survival rate (%)<90)	+++ (survival rate (%)≤30)	+ (60≤survival rate (%)<90)
O=C1CCC(N2Cc3c(NC=C4C(=O)CC(c5ccccc5Cc5ccccc5)CC4=O)cccc3C2=O)C(=O)N1 (stereo not drawn) [Compound 35]	+++ (survival rate (%)≤30)	+++ (survival rate (%)≤30)	+++ (survival rate (%)≤30)	+++ (survival rate (%)≤30)	++ (30<survival rate (%)≤60)	++ (30<survival rate (%)≤60)
O=C1CCC(N2Cc3c(NC=C4C(=O)CC(c5cccs5)CC4=O)cccc3C2=O)C(=O)N1 (stereo not drawn) [Compound 36]	+++ (survival rate (%)≤30)	+ (60≤survival rate (%)<90)	+ (60≤survival rate (%)<90)	+ (60≤survival rate (%)<90)	++ (30<survival rate (%)≤60)	+ (60≤survival rate (%)<90)
O=C1CCC(N2Cc3c(NC=C4C(=O)CC(c5csc6ccccc56)CC4=O)cccc3C2=O)C(=O)N1 (stereo not drawn) [Compound 37]	+++ (survival rate (%)≤30)	+ (60≤survival rate (%)<90)	+ (60≤survival rate (%)<90)	+ (60≤survival rate (%)<90)	+++ (survival rate (%)≤30)	+ (60≤survival rate (%)<90)
COc1ccc(C2CC(=O)C(=CNc3cccc4c3CN(C3CCC(=O)NC3=O)C4=O)C(=O)C2)c(OC)c1 (stereo not drawn) [Compound 40]	+ (60≤survival rate (%)<90)	+ (60≤survival rate (%)<90)	+++ (survival rate (%)≤30)	+++ (survival rate (%)≤30)	+ (60≤survival rate (%)<90)	++ (30<survival rate (%)≤60)
Cc1cc(C(=O)Nc2cccc3c2CN(C2CCC(=O)NC2=O)C3=O)ccc1NC=C1C(=O)CC(c2ccccc2)CC1=O (stereo not drawn) [Compound 51]	+ (60≤survival rate (%)<90)	+++ (survival rate (%)≤30)	+ (60≤survival rate (%)<90)	+ (60≤survival rate (%)<90)	+ (60≤survival rate (%)<90)	+ (60≤survival rate (%)<90)
O=C1CCC(N2Cc3c(NC(=O)c4ccccc4NC=C4C(=O)CC(c5ccccc5)CC4=O)cccc3C2=O)C(=O)N1 (stereo not drawn) [Compound 52]	+ (60≤survival rate (%)<90)	+++ (survival rate (%)≤30)	+++ (survival rate (%)≤30)	++ (30<survival rate (%)≤60)	++ (30<survival rate (%)≤60)	+ (60≤survival rate (%)<90)
O=C1CCC(N2Cc3c(NC(=O)c4cccc(NC=C5C(=O)CC(c6ccccc6)CC5=O)c4)cccc3C2=O)C(=O)N1 (stereo not drawn) [Compound 53]	+++ (survival rate (%)≤30)	+++ (survival rate (%)≤30)	+++ (survival rate (%)≤30)	+++ (survival rate (%)≤30)	++ (30<survival rate (%)≤60)	+ (60≤survival rate (%)<90)
O=C1CCC(N2Cc3c(NC(=O)CN4CCN(CCNC=C5C(=O)CC(c6ccccc6)CC5=O)CC4)cccc3C2=O)C(=O)N1 (stereo not drawn) [Compound 54]	+++ (survival rate (%)≤30)	++ (30<survival rate (%)≤60)	+++ (survival rate (%)≤30)	+++ (survival rate (%)≤30)	++ (30<survival rate (%)≤60)	+ (60≤survival rate (%)<90)
